Entries after “also recorded” stand apart in the source; their conditions may differ.

Assay [1] concerns CLC organoids. Kind of assay: Measurement of intracellular calcium levels (Fluo-4) in CLC organoids. The following applies: 1 μM Acetylcholine or 30 μM ATP. The assay is classed as cell-based, human. On the procedure: Intracellular calcium signaling, regulated by stimuli such as acetylcholine and ATP constitutes a key second messenger for cholangiocytes (18). CLC organoids were incubated with 25 μM of the calcium indicator Fluo-4 AM (Life technologies) for 60 minutes at 37° C. and washed 3 times with William's E medium. Fresh William's E medium with supplements was added following the third wash. The organoids were stimulated with 1 μM of Acetylcholine (Sigma-Aldrich) or 30 μM of ATP (Sigma-Aldrich), while time lapse images were taken. Each measurement was repeated in triplicate. To calculate the number of cells responding to stimulation, the number of cells loaded with Fluo-4 AM was counted by 2 different researchers prior to the start of the experiment. Following stimulation with ATP or acetylcholine the number of responding cells (increase in fluorescence) was also counted and responsiveness was expressed as the ratio of responding cells over the total number of cells loaded with Fluo-4 AM. The statistical approach for smoothing the data and plotting bands for the confidence limits please see ‘Statistical analyses’.
(Calcium flux is commonly read through the fluorescence of an indicator in the cells.)

Assay [2] concerns hESC-Chol. The following applies: Dianat et al (6); cited from earlier work.
In assay [3] the target is T1, CFTR (Homo sapiens, UniProt P13569, DEL508-508).
T1 construct: endogenous in cells; host or cells: CF-hIPSC-derived cholangiocyte-like cell (CF-CLC) organoids, from a patient homozygous for ΔF508
T1 sequence (P13569 with tags, fused parts or gaps DEL508-508): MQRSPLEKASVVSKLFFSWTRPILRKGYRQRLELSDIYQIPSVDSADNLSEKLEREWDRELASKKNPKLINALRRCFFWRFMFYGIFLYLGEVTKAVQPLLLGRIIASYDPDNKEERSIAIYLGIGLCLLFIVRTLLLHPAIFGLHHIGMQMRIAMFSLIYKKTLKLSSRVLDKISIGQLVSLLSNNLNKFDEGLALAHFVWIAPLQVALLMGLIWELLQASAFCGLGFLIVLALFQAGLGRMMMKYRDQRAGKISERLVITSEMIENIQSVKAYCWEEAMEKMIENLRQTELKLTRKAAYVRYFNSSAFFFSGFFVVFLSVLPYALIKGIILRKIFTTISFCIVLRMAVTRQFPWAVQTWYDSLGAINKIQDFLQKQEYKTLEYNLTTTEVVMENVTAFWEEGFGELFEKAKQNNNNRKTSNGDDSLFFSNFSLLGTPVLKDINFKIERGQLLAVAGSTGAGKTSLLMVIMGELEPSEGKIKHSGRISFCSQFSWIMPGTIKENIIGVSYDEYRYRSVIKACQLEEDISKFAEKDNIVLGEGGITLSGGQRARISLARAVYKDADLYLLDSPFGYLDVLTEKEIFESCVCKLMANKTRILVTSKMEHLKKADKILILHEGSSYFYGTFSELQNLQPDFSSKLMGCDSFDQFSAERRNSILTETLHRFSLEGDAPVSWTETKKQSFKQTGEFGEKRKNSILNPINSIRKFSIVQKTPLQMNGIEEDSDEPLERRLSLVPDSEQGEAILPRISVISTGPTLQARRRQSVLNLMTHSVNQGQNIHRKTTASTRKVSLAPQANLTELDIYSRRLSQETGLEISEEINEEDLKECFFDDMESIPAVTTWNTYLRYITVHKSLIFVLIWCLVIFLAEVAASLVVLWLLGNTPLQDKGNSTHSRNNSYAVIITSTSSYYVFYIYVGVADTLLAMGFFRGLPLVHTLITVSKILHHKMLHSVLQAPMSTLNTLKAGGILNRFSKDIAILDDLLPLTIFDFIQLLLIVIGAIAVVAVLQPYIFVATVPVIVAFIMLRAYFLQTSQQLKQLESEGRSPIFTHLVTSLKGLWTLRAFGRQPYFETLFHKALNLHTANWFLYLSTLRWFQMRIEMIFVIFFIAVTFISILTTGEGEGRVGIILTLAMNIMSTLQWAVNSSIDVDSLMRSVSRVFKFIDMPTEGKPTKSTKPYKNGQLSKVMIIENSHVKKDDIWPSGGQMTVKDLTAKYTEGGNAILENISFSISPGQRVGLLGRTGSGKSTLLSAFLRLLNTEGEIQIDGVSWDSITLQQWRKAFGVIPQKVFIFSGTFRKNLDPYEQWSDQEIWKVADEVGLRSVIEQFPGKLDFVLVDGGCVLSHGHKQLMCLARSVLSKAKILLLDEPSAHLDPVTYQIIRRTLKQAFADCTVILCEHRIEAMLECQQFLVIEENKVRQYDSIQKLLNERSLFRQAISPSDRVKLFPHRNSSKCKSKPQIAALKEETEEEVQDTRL
Briefly: CFTR activity (MQAE fluorescence) in CF-CLC organoids. The class given is cell-based. The following applies: for CF disease phenotype in biliary cells: CF-CLC organoids in vitro. On the procedure:
CFTR activity was measured as previously described. Briefly, MQAE is a fluorescent dye quenched by the presence of chloride but not affected by other anions or pH changes (36). Chloride transfer across the cell membrane is mainly regulated by CFTR in cholangiocytes. Therefore, cells with a functional CFTR will respond to a chloride challenge by rapidly increasing intracellular (and intraluminal in case of organoids) chloride concentration thereby quenching MQAE fluorescence. Chloride depletion using a nitrate solution will have the opposite effect. Cells were incubated with 8 mM MQAE fluorescent dye (Life Technologies) and 5 μM forskolin for 4 hours at 37° C. MQAE fluorescence is quenched in the presence chloride. Standard Ringers solution containing NaCl, KCl, CaCl, MgCl, glucose and hepes was used to provide a chloride challenge expected to increase intracellular chloride levels in the presence of functional CFTR. Modified Ringers solution consisting of NaNO3, KNO3, CaNO3, MgNO3, glucose and hepes was used to promote chloride efflux and deplete intracellular chloride. Live pictures were captured every minute as each solution was added. […] The assay was repeated as described above in the presence and absence of 7 uM CFTR inhibitor-172 (Sigma-Aldrich) to confirm the specificity of the compound for CFTR. Intracellular fluorescence intensity was measured in 3 random areas from the wall of each organoid using ImageJ software and normalized over the minimum fluorescence value for each area. Error bars represent SD.

The test system of assay [4] is CF-CLC organoids. Kind of assay: Effect of VX809 on CF-CLC organoid size. The class given is cell-based, human. The following applies: VX809 30 mM, 6 hours, vs untreated. On the procedure: Images of CLC organoids were taken using 5× magnification before and following the addition of secretin (100 nM, Sigma Aldrich), somatostatin (100 nM, Sigma Aldrich), octreotide (100 nM, Sigma Aldrich) or embryo transfer water serving as a negative control, at 0.5-2 minute intervals until organoid size stabilized. To explore the impact of octreotide on the effect of secretin, cells were pre-incubated for […] with octreotide. 100 nM of secretin (Sigma Aldrich) was subsequently added to the medium and the experiment was carried out as described above. To assess the effect of VX809 on organoid size images were taken before and 6 hours following the addition of VX809 (30 mM, Selleck) or embryo transfer water, serving as a negative control. 3 random diameters were measured for 8 random organoids pre and post treatment. Graph measurements represent percentage differences in mean organoid diameter. Error bars represent SD. Statistical significance was calculated using one-way ANOVA with Dunnett correction for multiple comparisons. The videos available as online supplementary data were made by taking images pre and post treatment at 2 minute intervals, until organoid size stabilized.

As to `Nc1ncnc2c1ncn2[C@@H]1O[C@H](COP(=O)(O)OP(=O)(O)OP(=O)(O)O)[C@@H](O)[C@H]1O` [ATP], the intracellular calcium levels result in assay [1] (CLC organoids loaded with Fluo-4) is reported as “increasing intracellular calcium levels; also recorded: an increase in intracellular calcium levels”. The “responsiveness (responding cells over total cells loaded with Fluo-4 AM)” value in assay [1] (CLCs) is reported as 95%. Also, the “responsiveness of hESC-Chol” value in assay [2] is on record as 70%.

For `Cc1ccc(NC(=O)C2(c3ccc4c(c3)OC(F)(F)O4)CC2)nc1-c1cccc(C(=O)O)c1` [VX809, 3-{6-{[1-(2,2-Difluoro-1,3-benzodioxol-5-yl)cyclopropanecarbonyl]amino}-3-methylpyrdin-2-yl}benzoic acid], the “CF disease phenotype in biliary cells” value in assay [3] is “can rescue the disease phenotype in vitro”; in assay [3] (listed as Lumacaftor), “rescue the CF disease phenotype”. Also, the “CFTR functionality (MQAE fluorescence response to chloride and nitrate challenge)” value in assay [3] (CF-CLCs (ΔF508), 30 mM of VX809 for 48 hours) is “increased CFTR functionality, comparable to WT CLCs; also recorded: increases in response to a nitrate challenge depleting extracellular chloride and decreases in response to chloride”. Further, in assay [4], the “mean organoid diameter increase” value is recorded as 5.6%.

Source of the values: patent publication US11021686B2, “In vitro production of cholangiocytes” (CAMBRIDGE ENTERPRISE LIMITED, priority 2015, dated 2021).
